Data as given in US8394952B2 (Vertex Pharmaceuticals Incorporated, priority 2006, dated 2013).

Target: Plk1 (Homo sapiens, UniProt P53350)
Assay: biochemical

Chain of Plk1 (P53350 20-338): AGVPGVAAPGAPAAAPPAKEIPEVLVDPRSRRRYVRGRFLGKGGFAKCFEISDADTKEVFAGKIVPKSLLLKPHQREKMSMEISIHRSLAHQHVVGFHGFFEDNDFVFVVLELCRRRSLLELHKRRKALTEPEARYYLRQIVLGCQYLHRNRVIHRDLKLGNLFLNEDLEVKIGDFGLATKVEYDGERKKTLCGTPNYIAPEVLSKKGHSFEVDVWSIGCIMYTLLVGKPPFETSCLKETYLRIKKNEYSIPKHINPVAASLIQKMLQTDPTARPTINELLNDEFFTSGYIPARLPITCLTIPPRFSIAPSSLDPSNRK

| Structure (SMILES) | Ki |
| --- | --- |
| CN1C(=O)CCN(C2CCCC2)c2nc(Nc3ccc(C(=O)O)cc3)ncc21 [Compound I-3, 4-(9-Cyclopentyl-6,7,8,9-tetrahydro-5-methyl-6-oxo-5H-pyrimido[4,5-b][1,4]diazepin-2-ylamino)-benzoic acid] | 10 to 100 nM |
| COc1cc(C(=O)NC2CCN(C(=O)OC(C)(C)C)CC2)ccc1Nc1ncc2c(n1)N(C1CCCC1)CCC(=O)N2C [Compound I-5, 4-(9-cyclopentyl-6,7,8,9-tetrahydro-5-methyl-6-oxo-5H-pyrimido[4,5-b][1,4]diazepin-2-ylamino)-3-methoxy-N-[1-(tert-butoxycarbonyl)piperidin-4-yl]benzamide] | < 10 nM |
| COc1cc(C(=O)N2CCN(C(=O)OC(C)(C)C)CC2)ccc1Nc1ncc2c(n1)N(C1CCCC1)CCC(=O)N2C [Compound I-7, 4-(9-cyclopentyl-6,7,8,9-tetrahydro-5-methyl-6-oxo-5H-pyrimido[4,5-b][1,4]diazepin-2-ylamino)-3-methoxyphenyl-(4-tert-butoxycarbonypiperazin-1-yl)methanone] | 10 to 100 nM |
| COCCNC(=O)c1ccc(Nc2ncc3c(n2)N(C2CCCC2)CCC(=O)N3C)c(OC)c1 [Compound I-11, 4-(9-cyclopentyl-6,7,8,9-tetrahydro-5-methyl-6-oxo-5H-pyrimido[4,5-b][1,4]diazepin-2-ylamino)-3-methoxy-N-(2-methoxyethyl)benzamide] | < 10 nM |
| COc1cc(C(=O)NC2CCN(C)CC2)ccc1Nc1ncc2c(n1)N(C)CCC(=O)N2C [Compound I-14, 4-(6,7,8,9-tetrahydro-5,9-dimethyl-6-oxo-5H-pyrimido[4,5-b][1,4]diazepin-2-ylamino)-3-methoxy-N-(1-methylpiperidin-4-yl)benzamide] | 10 to 100 nM |
| CNC(=O)c1ccc(Nc2ncc3c(n2)N(C2CCCC2)[C@@H]2CCC[C@@H]2C(=O)N3C)c(OC)c1 [Compound I-15, 4-((3aR,10aS)-4-cyclopentyl-9-methyl-10-oxo-1,2,3,3a,4,9,10,10a-octahydro-4,5,7,9-tetraaza-benzo[f]azulen-6-ylamino)-3-methoxy-N-methylbenzamide] | 10 to 100 nM |

Second part, the compound after the results:

| Ki | Structure (SMILES) |
| --- | --- |
| 10 to 100 nM | COc1cc(C(=O)O)ccc1Nc1ncc2c(n1)N(C1CCCC1)CCC(=O)N2C [Compound I-1, 4-(9-Cyclopentyl-6,7,8,9-tetrahydro-5-methyl-6-oxo-5H-pyrimido[4,5-b][1,4]diazepin-2-ylamino)-3-methoxybenzoic acid] |
| < 10 nM | COc1cc(C(=O)NC2CCNCC2)ccc1Nc1ncc2c(n1)N(C1CCCC1)CCC(=O)N2C [Compound I-6, 4-(9-cyclopentyl-6,7,8,9-tetrahydro-5-methyl-6-oxo-5H-pyrimido[4,5-b][1,4]diazepin-2-ylamino)-3-methoxy-N-(piperidin-4-yl)benzamide] |
| 10 to 100 nM | COc1cc(C(=O)N2CCNCC2)ccc1Nc1ncc2c(n1)N(C1CCCC1)CCC(=O)N2C [Compound I-8, 4-(9-cyclopentyl-6,7,8,9-tetrahydro-5-methyl-6-oxo-5H-pyrimido[4,5-b][1,4]diazepin-2-ylamino)-3-methoxyphenyl(piperazin-1-yl)methanone] |
| < 10 nM | CNC(=O)c1ccc(Nc2ncc3c(n2)N(C2CCCC2)CCC(=O)N3C)c(OC)c1 [Compound I-9, 4-(9-cyclopentyl-6,7,8,9-tetrahydro-5-methyl-6-oxo-5H-pyrimido[4,5-b][1,4]diazepin-2-ylamino)-3-methoxy-N-methylbenzamide] |
| 10 to 100 nM | COc1cc(C(=O)O)ccc1Nc1ncc2c(n1)N(C1CCCC1)CC(C)C(=O)N2C (stereo not drawn) [Compound I-10, 4-(9-cyclopentyl-6,7,8,9-tetrahydro-5,7-dimethyl-6-oxo-5H-pyrimido[4,5-b][1,4]diazepin-2-ylamino)-3-methoxybenzoic acid] |
| < 10 nM | COc1cc(C(=O)NC2CCN(C)CC2)ccc1Nc1ncc2c(n1)N(C1CCCC1)CC(C)C(=O)N2C (stereo not drawn) [Compound I-12, 4-(9-cyclopentyl-6,7,8,9-tetrahydro-5,7-dimethyl-6-oxo-5H-pyrimido[4,5-b][1,4]diazepin-2-ylamino)-3-methoxy-N-(1-methylpiperidin-4-yl)benzamide] |
